ChEMBL document CHEMBL1201862, “PubChem BioAssay data set” (2004)
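All cell lines were grown in 96-well plates and treated with compound for 48 hours. GI50 marks 50% less growth.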 The source made the active and inactive calls. No stated cut-off is given here; in the data, active = GI50 up to about 1.1 µM and inactive = higher.

Tests used:
Test in all cases: NCI anticancer screen, dose series, 48 h
A498 = system: A498
A549 = system: A549
COLO 205 = system: COLO 205
EKVX = system: EKVX
HCC 2998 = system: HCC 2998
HOP-92 = system: HOP-92
HT-29 = system: HT-29
IGROV-1 = system: IGROV-1
K562 = system: K562
KM12 = system: KM12
M14 = system: M14
OVCAR-8 = system: OVCAR-8
SK-MEL-28 = system: SK-MEL-28
SK-MEL-5 = system: SK-MEL-5
SK-OV-3 = system: SK-OV-3
T47D = system: T47D
UO-31 = system: UO-31
MDA-MB-231 = system: MDA-MB-231
UACC-62 = system: UACC-62

Measured: GI50

CSC1=NS(=O)(=O)c2cc(C(=O)NN(C)C(=O)c3cc4c(cc3Cl)SC(SC)=NS4(=O)=O)c(Cl)cc2S1
inactive: A498 > 10 µM | A549 > 10 µM | COLO 205 > 10 µM | EKVX > 10 µM | HCC 2998 > 10 µM | HOP-92 > 10 µM | HT-29 > 10 µM | IGROV-1 > 10 µM | K562 > 10 µM | KM12 > 10 µM | M14 > 10 µM | OVCAR-8 > 10 µM | SK-MEL-28 > 10 µM | SK-MEL-5 > 10 µM | SK-OV-3 > 10 µM | T47D > 10 µM | UO-31 > 10 µM

O=C1Nc2c(Cl)cc(Cl)cc2/C1=N/NC(=O)c1ccncc1
inactive: A498 > 100 µM | A549 > 100 µM | COLO 205 27.2 µM | EKVX 28.5 µM | HCC 2998 44.1 µM | HOP-92 33.2 µM | HT-29 27.4 µM | IGROV-1 22.9 µM | K562 27.9 µM | KM12 30.9 µM | M14 46.2 µM | MDA-MB-231 17.3 µM | OVCAR-8 20.6 µM | SK-MEL-28 22.6 µM | SK-MEL-5 17.9 µM | SK-OV-3 25.6 µM | UACC-62 17.3 µM | UO-31 27.9 µM

C=CCN1C(=O)CC(=O)N(NC2=NNC3(C(=O)N2)c2ccccc2-c2ccccc23)C1=S
inactive: A498 34.8 µM | A549 34.2 µM | COLO 205 21.7 µM | EKVX 29.4 µM | HCC 2998 38.6 µM | HOP-92 15.4 µM | HT-29 37.9 µM | IGROV-1 38.9 µM | K562 31.5 µM | M14 > 100 µM | MDA-MB-231 > 100 µM | OVCAR-8 29.2 µM | SK-MEL-28 49.9 µM | SK-MEL-5 31.4 µM | SK-OV-3 42.2 µM | UACC-62 28.5 µM | UO-31 31.8 µM

COc1cc(/C=C(\C#N)c2ccccc2)cc(OC)c1
inactive: A549 28.6 µM | COLO 205 57.4 µM | EKVX 77.1 µM | HCC 2998 67.6 µM | HT-29 32.4 µM | IGROV-1 71 µM | K562 15.2 µM | KM12 34.8 µM | M14 33.8 µM | OVCAR-8 > 10 µM | SK-MEL-28 26.1 µM | SK-MEL-5 41.1 µM | SK-OV-3 48.2 µM | UACC-62 32.4 µM | UO-31 29.6 µM

CS/C(c1ccccc1)=[N+](/C)[O-]
inactive: A498 > 100 µM | A549 > 100 µM | COLO 205 > 43.3 µM | EKVX > 100 µM | HCC 2998 > 100 µM | HOP-92 > 100 µM | HT-29 > 75.9 µM | IGROV-1 > 100 µM | K562 > 67.9 µM | KM12 > 100 µM | M14 > 100 µM | OVCAR-8 > 100 µM | SK-MEL-28 > 100 µM | SK-MEL-5 > 100 µM | SK-OV-3 > 100 µM | UACC-62 > 100 µM | UO-31 > 100 µM

CCOC(=O)c1c(N)n(-c2ccccc2)c(=S)n(-c2ccccc2)c1=O
inactive: A549 > 100 µM | COLO 205 > 100 µM | HCC 2998 > 100 µM | HOP-92 > 100 µM | HT-29 > 100 µM | IGROV-1 > 100 µM | K562 > 100 µM | KM12 > 100 µM | M14 > 100 µM | MDA-MB-231 > 100 µM | OVCAR-8 > 100 µM | SK-MEL-28 > 100 µM | SK-MEL-5 > 100 µM | T47D > 100 µM | UACC-62 > 100 µM | UO-31 > 100 µM

C/C(CC(=O)Nc1ccc(NC(=O)/C(C)=N/NS(=O)(=O)c2ccc(C)cc2)cc1)=N\NS(=O)(=O)c1ccc(C)cc1
inactive: A498 > 100 µM | A549 > 100 µM | COLO 205 > 100 µM | EKVX > 100 µM | HCC 2998 > 100 µM | HOP-92 > 100 µM | HT-29 > 100 µM | IGROV-1 > 100 µM | K562 > 100 µM | KM12 > 100 µM | M14 > 100 µM | OVCAR-8 > 100 µM | SK-MEL-28 > 100 µM | SK-MEL-5 > 100 µM | SK-OV-3 > 100 µM | UACC-62 > 100 µM | UO-31 > 100 µM

NCCCCC(NC(=O)C(N)Cc1ccc(O)cn1)C(=O)O (stereo not given)
inactive: A498 > 100 µM | A549 > 100 µM | COLO 205 > 100 µM | EKVX > 100 µM | HCC 2998 > 100 µM | HOP-92 > 100 µM | HT-29 > 100 µM | IGROV-1 > 100 µM | K562 > 100 µM | KM12 > 100 µM | MDA-MB-231 > 100 µM | OVCAR-8 > 100 µM | SK-MEL-28 > 100 µM | SK-MEL-5 > 100 µM | UO-31 > 100 µM

COC1CC(OC2C(C)OC(OC3C(C)OC(OC4C(O)CC(O[C@H]5CC[C@@]6(C)C(=CC[C@]7(O)[C@@H]6C[C@@H](OC(=O)/C=C/c6ccccc6)[C@@]6(C)[C@]7(O)CC[C@@]6(O)C(C)=O)C5)OC4C)CC3OC)CC2OC)OC(C)C1O (stereo not given in full)
inactive: A549 > 6.25 µM | COLO 205 > 6.25 µM | EKVX > 6.25 µM | HCC 2998 > 6.25 µM | HOP-92 > 6.25 µM | HT-29 > 6.25 µM | IGROV-1 > 6.25 µM | K562 > 6.25 µM | KM12 > 6.25 µM | M14 > 6.25 µM | MDA-MB-231 > 6.25 µM | OVCAR-8 > 6.25 µM | SK-MEL-5 > 6.25 µM | SK-OV-3 > 6.25 µM | T47D > 6.25 µM | UACC-62 > 6.25 µM | UO-31 4.52 µM

COC1OC2COC(=O)c3cc(O)c(O)c(O)c3-c3c(cc(O)c(O)c3O)C(=O)OC2C(O)C1O (stereo not given)
inactive: A549 72.6 µM | COLO 205 54.1 µM | EKVX > 100 µM | HT-29 34.4 µM | IGROV-1 > 100 µM | K562 36.4 µM | KM12 > 100 µM | M14 43.9 µM | MDA-MB-231 > 100 µM | OVCAR-8 54.1 µM | SK-MEL-28 > 100 µM | SK-MEL-5 84.7 µM | SK-OV-3 > 100 µM | UACC-62 21.4 µM | UO-31 > 100 µM

COc1ccc(CCN(C)C(=O)CC(C#N)(c2ccccc2)c2ccc(OC)c(OC)c2)cc1OC (stereo not given)
inactive: A498 > 100 µM | A549 > 100 µM | COLO 205 > 100 µM | EKVX > 100 µM | HOP-92 3.15 µM | HT-29 > 100 µM | IGROV-1 > 100 µM | K562 > 42.2 µM | KM12 > 100 µM | M14 > 100 µM | OVCAR-8 > 100 µM | SK-MEL-28 > 100 µM | SK-MEL-5 98.4 µM | SK-OV-3 > 100 µM | T47D > 100 µM | UACC-62 > 100 µM | UO-31 > 74.6 µM

CC(CC(=O)N1C2CC3CCC2(CS1(=O)=O)C3(C)C)[Si](C)(C)C (stereo not given)
inactive: A549 > 100 µM | COLO 205 > 100 µM | EKVX > 100 µM | HCC 2998 > 100 µM | HT-29 > 100 µM | IGROV-1 > 100 µM | K562 > 100 µM | KM12 > 100 µM | M14 > 100 µM | MDA-MB-231 > 100 µM | OVCAR-8 > 100 µM | SK-MEL-28 > 100 µM | SK-MEL-5 > 100 µM | T47D > 100 µM | UO-31 > 100 µM

CC(=O)Nc1cc(Nc2cc(O)nc(O)n2)ccc1C
inactive: A498 > 100 µM | A549 > 100 µM | COLO 205 > 100 µM | EKVX > 100 µM | HCC 2998 > 100 µM | HOP-92 > 100 µM | IGROV-1 > 100 µM | K562 > 100 µM | KM12 > 100 µM | M14 > 100 µM | MDA-MB-231 > 100 µM | OVCAR-8 > 100 µM | SK-MEL-28 > 100 µM | SK-MEL-5 > 100 µM | UO-31 > 100 µM

O=C(CC(=O)c1ccccc1)c1ccccc1.O=C(CC(=O)c1ccccc1)c1ccccc1.O=C(CC(=O)c1ccccc1)c1ccccc1.[SiH4]
inactive: A498 10.6 µM | A549 3.01 µM | COLO 205 2.21 µM | EKVX 6.65 µM | HCC 2998 3.6 µM | HOP-92 4.57 µM | HT-29 4.41 µM | IGROV-1 5.4 µM | K562 3.88 µM | KM12 3.48 µM | M14 6.24 µM | OVCAR-8 3.47 µM | SK-MEL-28 7.76 µM | SK-MEL-5 4.66 µM | SK-OV-3 5.79 µM | UACC-62 3.89 µM | UO-31 4.56 µM

CCN(CC)CCC(=O)/C=C/c1ccc(Cl)c(Cl)c1
inactive: A549 2.78 µM | COLO 205 3.85 µM | EKVX > 10 µM | HCC 2998 3.36 µM | HOP-92 > 10 µM | K562 3.68 µM | KM12 2.36 µM | M14 3.52 µM | MDA-MB-231 3.48 µM | OVCAR-8 4.21 µM | T47D 2.33 µM

COc1cc(/C=C/C(=O)O)ccc1O [FERULATE]
inactive: A549 > 100 µM | COLO 205 > 100 µM | EKVX > 100 µM | HCC 2998 > 100 µM | HOP-92 > 100 µM | HT-29 > 100 µM | IGROV-1 > 100 µM | K562 > 100 µM | KM12 > 100 µM | M14 > 100 µM | MDA-MB-231 > 100 µM | OVCAR-8 > 100 µM | SK-MEL-28 > 100 µM | SK-MEL-5 > 100 µM | T47D > 100 µM | UO-31 > 100 µM
